From paper PMC10996005, “Identification and Development of Cyclic Peptide Inhibitors of Hypoxia Inducible Factors 1 and 2 That Disrupt Hypoxia-Response Signaling in Cancer Cells” (Journal of the American Chemical Society, 2024)
Where a SMILES comes first, the peptide text is derived from it. [ ]: non-standard residue; d: D form. Phe(4-I) = N[C@@H](Cc1ccc(I)cc1)C(=O)O

What was measured:
[1] = test system: CAIX and VEGF genes in MCF-7 cells; test: qPCR of hypoxia-response genes in MCF-7 cells; assay type: cell-based; settings: hypoxic MCF-7 cells, 50 μM, vs DMSO-treated hypoxic cells
Method: (§1) The effect of our lead inhibitor on hypoxia-response signaling was measured by qPCR in cancer cell lines. Cells were treated with either 2 μM of an analogue of the HIF-2-specific inhibitor belzutifan, PT2399 (control), or 50 μM of cyclo-CRLII(4-iodo)F, incubated in hypoxia for […], and the levels of the hypoxia-response genes CAIX([41],[42]) and VEGF([43]) were measured by qPCR. We observed a 51% drop in CAIX transcription and a 43% drop in VEGF transcription in hypoxic MCF-7 (breast cancer) cells treated with 50 μM of cyclo-CRLII(4-iodo)F versus hypoxic MCF-7 cells treated with DMSO only (Figure 6e). […] We also observed a 49% drop in CAIX expression in hypoxic HeLa (cervical cancer) cells treated with cyclo-CRLII(4-iodo)F (Figure S9b). […] We observed a 35% drop in HIF-2-driven VEGF transcription in 786-O cells treated with 50 μM of cyclo-CRLII(4-iodo)F compared to a 50% decrease in 786-O cells treated with PT2399. […]
(§2) Realtime PCR (qPCR) Assay
(§3) Cells were plated on 6cm dishes at 80% confluency and incubated overnight under normoxic conditions. The cells were then treated with compound and incubated for 18 hours in hypoxic conditions. After treatment, the cells were washed with PBS and lysed under hypoxic conditions. The total RNA was extracted from the cells using a commercial RNA extraction kit (Fisher Scientific) following the manufacturer's instructions. A commercial reverse transcription kit (Promega) was used to generate cDNA. The MyTaq™ Mix master mix and appropriate primers targeting CAIX and VEGF were used to perform the qPCR reaction using a qPCR machine (Bio-Rad).

[2] = test system: HIF-driven expression of YFP in T-REx-293 reporter cell line; test: HRE-YFP reporter assay in hypoxia; assay type: cell-based, human
Description: (§4) Following in vitro characterization and optimization of binding, we next assessed the effect of our cyclic peptides in mammalian cells. A cell line with a stably integrated reporter was constructed, in which the expression of yellow fluorescent protein (YFP) was placed under the control of a HRE. Thus, hypoxia would be expected to increase YFP expression (and subsequent fluorescence) in these cells, whereas treatment with a cell-permeable HIF inhibitor would be expected to reduce this fluorescence signal. A fusion cassette was designed containing the YFP gene preceded by three copies of the HRE sequence. This cassette was stably integrated into T-REx-293 cells as previously described.[12] […] The effect of this compound on the viability of T-Rex-293 was assessed with no effect observed at doses up to 75 μM (Figure S9a). […] It should be noted that the relative activity of each compound in this assay will be a combination of its cell permeability and HIF-inhibiting activity. […] We therefore continued to further characterize the cell activity of the 4-iodo-phenylalanine derivative. […]
Generation of HRE-eYFP integrated cell line
The Flp-In System (Fisher) was used to generate a constitutive expression cell line that expresses eYFP under the control of the VEGF HRE. The coding sequence of the yellow fluorescent protein (eYFP) was cloned downstream of the VEGF HRE sequence in the pcDNA5 plasmid, such that the entire cassette was under the regulation of a Tet-On gene expression system. The plasmid was transfected into a human embryonic kidney cell line (Flp-In™-293) and integrated using the manufacturer’s protocol.
Activity Assessment using Flp-In-HRE-eYFP cell line
The Flp-In-HRE-eYFP cells were plated on 24-well plates at 80% confluency and incubated overnight under normoxic conditions. The cells were then treated with different concentrations of compound and incubated for 18 hours under hypoxic conditions. After treatment, the cells were washed with PBS and lysed to extract the total cellular protein. The cell extract was cold centrifuged for 20 minutes at 14,000 RPM. An equal amount of the supernatant from each treatment was plated on a 96-well plate, and the emission of eYFP was measured using a microplate reader. […]

[3] = test system: CAIX and VEGF genes in Panc-1 cells; test: qPCR of hypoxia-response genes in Panc-1 cells; assay type: cell-based; settings: hypoxic Panc-1 cells, 50 μM, vs DMSO-treated hypoxic cells
Method: as §1, §2, §3

T-Rex-293 cells = test: CytoTox-Glo cytotoxicity / viability assay; assay type: cell-based, human; settings: doses up to 75 μM
Description: as §4
Pancreatic cancer cells (PANC-1) were plated in a T75 flask at 80% confluency overnight under normoxic conditions. […] The concentration of the extracted proteins was measured using the BCA Protein Assay Kit (Sigma) following the manufacturer's instructions. […]

VEGF gene in 786-O cells = test: qPCR of HIF-2-driven VEGF in 786-O cells; assay type: cell-based; settings: 50 μM
Method: as §1, §2
as §3, with “A commercial reverse transcription kit (Promega) was used to generate cDNA. The MyTaq™ Mix master mix and appropriate primers targeting CAIX and VEGF were used to perform the qPCR reaction using a qPCR machine (Bio-Rad).” left out

SMILES: CC[C@H](C)[C@@H]1NC(=O)[C@H](CC(C)C)NC(=O)[C@H](CCCNC(=N)N)NC(=O)[C@H](CS)NC(=O)[C@H](Cc2ccc(I)cc2)NC(=O)[C@H]([C@@H](C)CC)NC1=O [cyclo-CRLII(4-iodo)F] (cyclo(CRLII[Phe(4-I)]))
- drop in CAIX transcription [1]: 51%
- drop in VEGF transcription [1]: 43%
- EC50 ([2]; T-REx-293 HRE-YFP reporter, 18 hours, read-out: EC50 for reduction in hypoxia-mediated YFP fluorescence): 30.7 ± 2.1 µM
- relative activity among the 9 most potent cyclo-CRLIIF derivatives on YFP expression ([2]; T-Rex-293 HRE-YFP reporter): most active
- drop in CAIX expression [3]: 41%
- drop in VEGF transcription [3]: 26%
- effect on the viability of T-Rex-293 (T-Rex-293 cells): no effect
- drop in HIF-2-driven VEGF transcription (VEGF gene in 786-O cells): 35%
